Tests used:
[1] = system: Rhodococcus erythropolis MAK-34; format: cell-based
[2] = system: Mycobacterium smegmatis IAM-12065; format: cell-based
[3] = system: aminoketone asymmetric reductase; assay: Substrate specificity and enzyme activity of purified enzyme (NADPH absorbance at 340 nm); format: biochemical, Rhodococcus erythropolis; conditions: for enzyme acts on the compound (substrate specificity): purified enzyme
Method: (§1) While 10 μl of 1 M Tris-hydrochloric acid buffer solution (pH 8.0), 25 μl of 16 mM NADP^+, and 215 μl of the purified enzyme solution were held at 43° C., 1 μl of 1-amino-2-hydroxypropane was added thereto, whereby aminoacetone was produced. The increase or decrease in NADPH accompanying the reaction was measured by the change in absorbance at 340 nm. In the measurement of enzyme activity, the enzyme activity by which 1 μmol of 1-amino-2-hydroxypropane was oxidized per 1 min under the following condition was defined as 1 unit (U). As a result, the whole activity was 126 mU, the specific activity was 432 mU/mg, and the activity yield was 0.22%.
It was similarly confirmed that the enzyme acted on 1-2-methylaminopropiophenone, 1-2-dimethylaminopropiophenone, and 1-amino-2-butanone.

[4] = system: Penicillium cyaneum IFO-5337; assay: Influence of inducer addition on d-pseudoephedrine production (Example 6); format: cell-based; conditions: cells cultured with inducer 5 g/L, medium 4
[5] = system: Hypocrea gelatinosa IFO-9165; assay: as above; format: cell-based; conditions: cells cultured with inducer 5 g/L, medium 4
[6] = system: Mycobacterium chlorophenolicum IFO-15527; format: cell-based
[7] = system: Absidia lichtheimi IFO-4409; format: cell-based
[8] = system: Aspergillus candidus IFO-5468; format: cell-based
[9] = system: Armillariella mellea IFO-31616; assay: Influence of inducer addition on d-pseudoephedrine production (Example 6); format: cell-based; conditions: cells cultured with inducer 5 g/L, medium 4
[10] = system: Aspergillus awamori IFO-4033; format: cell-based
[11] = system: Helicostylum nigricans IFO-8091; format: cell-based
[12] = system: Nocardioides simplex IFO-12069; format: cell-based
[13] = system: Tritirachium oryzae IFO-7544; format: cell-based
[14] = system: Klebsiella pneumoniae IFO-3319; format: cell-based
[15] = system: Rhodococcus erythropolis MAK-34 strain; format: cell-based
[16] = system: aminoketone asymmetric reductase; format: biochemical, Rhodococcus erythropolis; conditions: inhibitor at a concentration of 1 mM; purified enzyme
Method: as §1, with “(U).” for “(U). As a result, the whole activity was 126 mU, the specific activity was 432 mU/mg, and the activity yield was 0.22%.”

[17] = system: aminoketone asymmetric reductase; assay: Optimum pH and optimum temperature of purified enzyme; format: biochemical, Rhodococcus erythropolis; conditions: 1-amino-2-propanol, NADP+
Method: Ten microliters of the purified enzyme solution, 420 μL of water, 20 μL of 1 M Tris-hydrochloric acid buffer solution, and 50 μL of 16 mM aqueous NADP^+ solution was mixed, and incubated at 45° C., and 2 μL of 1-amino-2-propanol were added thereto, so as to react therewith. Using a spectrophotometer, the activity was calculated from the change in absorbance at 340 nm with time (FIG. 2). As a result, the optimum pH was about 8.1.
Ten microliters of the purified enzyme solution, 420 μL of water, 20 μL of 0.1 M PIPES buffer solution (pH 7.5), and 50 μL of 16 mM aqueous NADP^+ solution was mixed, and incubated at various temperatures, and 2 μL of 1-amion-2-propanol were added thereto, so as to react therewith. Using a spectrophotometer, the activity was calculated from the change in absorbance at 340 nm with time (FIG. 3). As a result, the optimum temperature was 55° C.

## CCC(O)CN (centres unmarked) [1-amino-2-hydroxybutane]
[1]
  AMOUNT OF PRODUCTION (ADDED): 0.65 mg
[2]
  AMOUNT OF PRODUCTION (ADDED): 0.17 mg

## CNC(C)C(=O)c1ccccc1 (centres unmarked) [1-2-methylaminopropiophenone]
[3]
  enzyme acts on the compound (substrate specificity): acted on

## CC(O)CN (centres unmarked) [1-amino-2-hydroxypropane]
[4]
  AMOUNT OF PRODUCTION (ADDED): 1.260 mg
[5]
  AMOUNT OF PRODUCTION (ADDED): 0.640 mg
[1]
  AMOUNT OF PRODUCTION (ADDED): 1.260 mg
[6]
  AMOUNT OF PRODUCTION (ADDED): 0.770 mg
[7]
  AMOUNT OF PRODUCTION (ADDED): 0.220 mg
[8]
  AMOUNT OF PRODUCTION (ADDED): 0.018 mg
[9]
  AMOUNT OF PRODUCTION (ADDED): 0.460 mg
[10]
  AMOUNT OF PRODUCTION (ADDED): 1.170 mg
[11]
  AMOUNT OF PRODUCTION (ADDED): 0.520 mg
[12]
  AMOUNT OF PRODUCTION (ADDED): 0.190 mg
[13]
  AMOUNT OF PRODUCTION (ADDED): 0.078 mg
[14]
  AMOUNT OF PRODUCTION (ADDED): 0.066 mg
[3]
  enzyme acts on the compound (substrate specificity): acts on
[2]
  AMOUNT OF PRODUCTION (ADDED): 0.210 mg

## CC(=O)CN [1-amino-2-oxopropane]
[15]
  AMOUNT OF PRODUCTION: 1.97 mg
[3]
  enzyme acts on the compound (substrate specificity): reduction activity

## c1ccc(-c2ccccn2)nc1 [α,α′-dipyridyl]
[16]
  enzyme activity inhibited by inhibitor: inhibited

## NC1CCCCC1O (centres unmarked) [1-amino-2-hydroxycyclohexane]
[1]
  AMOUNT OF PRODUCTION (ADDED): 0.23 mg
[2]
  AMOUNT OF PRODUCTION (ADDED): 0.13 mg

## O=C(O)CN(CCN(CC(=O)O)CC(=O)O)CC(=O)O [EDTA]
[16]
  enzyme activity inhibited by inhibitor: inhibited

## CCC(=O)CN [1-amino-2-butanone]
[3]
  enzyme acts on the compound (substrate specificity): acted on

## CC(C(=O)c1ccccc1)N(C)C (centres unmarked) [1-2-dimethylaminopropiophenone]
[3]
  enzyme acts on the compound (substrate specificity): acted on

## c1cnc2c(c1)ccc1cccnc12 [o-phenanthroline]
[16]
  enzyme activity inhibited by inhibitor: inhibited

B1: aminoketone asymmetric reductase: enzyme purified from Rhodococcus erythropolis MAK-34; SEQ ID NO:1; tetramer of about 28,500 subunits; coenzyme NADP (protein, listed as Rhodococcus erythropolis)
chain: MFNSIEGRSVVVTGGSKGIGLGMVRVFARAGANVLMTARDALTLERAAEGLNGLPGAVSTLQVDVTNPDSLAGMAEVAAERHGGIDVLCANAGIFPSKRLGEMTSEDMDSVFGVNVKGTIHAVQACMPWLETSGRGRVVVTSSITGPVTGYPGWSHYGASKAAQMGFIRTAAIELAPKRITINAVLPGNVITEGLDGLGQEYLDQMASSVPAGSLGSVEDIANAALFFALDEAAYITGQSLIVDGGQVLPESAMALGEL
modifications: tetramer
notes: enzyme purified from Rhodococcus erythropolis MAK-34; tetramer of about 28,500 subunits; coenzyme NADP
[3]; oxidation of 1-amino-2-hydroxypropane, NADP+, pH 8.0, 43° C., 1 U = 1 μmol per 1 min
  specific activity: 432 mU/mg
[17]; PIPES buffer pH 7.5
  optimum temperature: 55 °C
[17]; Tris-hydrochloric acid buffer, 45° C.
  optimum pH: about 8.1

From patent publication US7166452B2, “Aminoketone asymmetric reductase and nucleic acid thereof” (priority 2001, dated 2007)
